Calls of active or inactive are those of the source. How the calls were made is not given here.
System: rodent lifetime carcinogenesis bioassay, tumor incidence TD50
Assay: chronic cancer bioassays in animals – CPDB, compiled studies (AID 1745844)

`ClC(Cl)Br` showed a TD50 (mouse, strain B6C3F1, females, by gavage, site: any site (literature study), lesion: several types, types named in the paper, dosed 102 weeks, study length 105 weeks) of 62.9 mg/kg/day, a TD50 (mouse, strain B6C3F1, females, by gavage, site: liver, lesion: hepatocellular adenoma + hepatocellular carcinoma + neoplastic nodule, dosed 102 weeks, study length 105 weeks) of 28.9 mg/kg/day and a TD50 (mouse, strain B6C3F1, females, by gavage, site: liver, lesion: hepatocellular adenoma + hepatocellular carcinoma, dosed 102 weeks, study length 105 weeks) of 28.9 mg/kg/day. The TD50 (mouse, strain B6C3F1, females, by gavage, site: liver, lesion: hepatocellular adenoma, dosed 102 weeks, study length 105 weeks) was 36 mg/kg/day, the TD50 (mouse, strain B6C3F1, females, by gavage, site: liver, lesion: hepatocellular carcinoma, dosed 102 weeks, study length 105 weeks) was 144 mg/kg/day and the TD50 (mouse, strain B6C3F1, females, by gavage, site: lung, lesion: alveolar/bronchiolar adenoma + alveolar/bronchiolar carcinoma, dosed 102 weeks, study length 105 weeks) was 644 mg/kg/day. For the same compound, the TD50 (mouse, strain B6C3F1, females, by gavage, site: multiple organs + spleen, lesion: malignant lymphoma, histiocytic type, dosed 102 weeks, study length 105 weeks) was 132 mg/kg/day, the TD50 (mouse, strain B6C3F1, males, by gavage, site: kidney, lesion: tubular-cell adenocarcinoma, dosed 102 weeks, study length 104 weeks) was 336 mg/kg/day and the TD50 (mouse, strain B6C3F1, males, by gavage, site: kidney, lesion: tubular-cell adenoma + tubular-cell adenocarcinoma, dosed 102 weeks, study length 104 weeks) was 137 mg/kg/day. For the same compound, the TD50 (mouse, strain B6C3F1, males, by gavage, site: kidney, lesion: tubular-cell adenoma, dosed 102 weeks, study length 104 weeks) was 215 mg/kg/day, the TD50 (mouse, strain B6C3F1, males, by gavage, site: multiple organs, lesion: malignant lymphoma, lymphocytic type, dosed 102 weeks, study length 104 weeks) was 74.2 mg/kg/day and the TD50 (rat, strain Fischer 344, females, by gavage, site: colon + kidney, lesion: adenocarcinoma, NOS + adenomatous polyp, NOS + tubular-cell adenoma + tubular-cell adenocarcinoma, dosed 102 weeks, study length 104 weeks) was 84.8 mg/kg/day. The TD50 (rat, strain Fischer 344, females, by gavage, site: colon, lesion: adenocarcinoma, NOS + adenomatous polyp, NOS, dosed 102 weeks, study length 104 weeks) was 200 mg/kg/day, the TD50 (rat, strain Fischer 344, females, by gavage, site: colon, lesion: adenocarcinoma, NOS, dosed 102 weeks, study length 104 weeks) was 411 mg/kg/day and the TD50 (rat, strain Fischer 344, females, by gavage, site: colon, lesion: adenomatous polyp, NOS, dosed 102 weeks, study length 104 weeks) was 364 mg/kg/day. It also gave a TD50 (rat, strain Fischer 344, females, by gavage, site: kidney, lesion: tubular-cell adenocarcinoma, dosed 102 weeks, study length 104 weeks) of 272 mg/kg/day, a TD50 (rat, strain Fischer 344, females, by gavage, site: kidney, lesion: tubular-cell adenoma + tubular-cell adenocarcinoma, dosed 102 weeks, study length 104 weeks) of 143 mg/kg/day and a TD50 (rat, strain Fischer 344, females, by gavage, site: kidney, lesion: tubular-cell adenoma, dosed 102 weeks, study length 104 weeks) of 351 mg/kg/day. The TD50 (rat, strain Fischer 344, males, by gavage, site: any site (literature study), lesion: several types, types named in the paper, dosed 102 weeks, study length 104 weeks) was 267 mg/kg/day, the TD50 (rat, strain Fischer 344, males, by gavage, site: colon + kidney + rectum, lesion: adenocarcinoma, NOS + adenomatous polyp, NOS + tubular-cell adenoma + tubular-cell adenocarcinoma, dosed 102 weeks, study length 104 weeks) was 30.3 mg/kg/day and the TD50 (rat, strain Fischer 344, males, by gavage, site: colon + rectum, lesion: adenocarcinoma, NOS + adenomatous polyp, NOS, dosed 102 weeks, study length 104 weeks) was 30.7 mg/kg/day. The TD50 (rat, strain Fischer 344, males, by gavage, site: colon + rectum, lesion: adenocarcinoma, NOS, dosed 102 weeks, study length 104 weeks) was 35.6 mg/kg/day, the TD50 (rat, strain Fischer 344, males, by gavage, site: colon + rectum, lesion: adenomatous polyp, NOS, dosed 102 weeks, study length 104 weeks) was 55.6 mg/kg/day and the TD50 (rat, strain Fischer 344, males, by gavage, site: kidney, lesion: tubular-cell adenocarcinoma, dosed 102 weeks, study length 104 weeks) was 213 mg/kg/day. For the same compound, the TD50 (rat, strain Fischer 344, males, by gavage, site: kidney, lesion: tubular-cell adenoma + tubular-cell adenocarcinoma, dosed 102 weeks, study length 104 weeks) was 152 mg/kg/day, the TD50 (rat, strain Fischer 344, males, by gavage, site: kidney, lesion: tubular-cell adenoma, dosed 102 weeks, study length 104 weeks) was 583 mg/kg/day and the TD50 (rat, strain Fischer 344, males, by gavage, site: liver, lesion: hepatocellular adenoma + hepatocellular carcinoma + neoplastic nodule, dosed 102 weeks, study length 104 weeks) was 747 mg/kg/day. For the same compound, the TD50 (rat, strain Fischer 344, males, by gavage, site: lung, lesion: alveolar/bronchiolar adenoma + alveolar/bronchiolar carcinoma, dosed 102 weeks, study length 104 weeks) was 366 mg/kg/day, the TD50 (rat, strain Fischer 344, males, by gavage, site: lung, lesion: alveolar/bronchiolar adenoma, dosed 102 weeks, study length 104 weeks) was 447 mg/kg/day and the TD50 (rat, strain Fischer 344, males, by gavage, site: tunica vaginalis, lesion: mesothelioma, NOS, dosed 102 weeks, study length 104 weeks) was 350 mg/kg/day. It also gave a TD50 (rat, strain Wistar, females, in drinking water, site: liver, lesion: neoplastic nodule, dosed 187 weeks, study length 187 weeks) of 544 mg/kg/day and a TD50 (rat, strain Wistar, males, in drinking water, site: pituitary gland, lesion: one or several types, types not named, dosed 182 weeks, study length 182 weeks) of 911 mg/kg/day.

For `N#CN`, the TD50 (mouse, strain B6AKF1, males, oral dosing, site: liver, lesion: hepatoma, dosed 76 weeks, study length 76 weeks) was 191 mg/kg/day, the TD50 (mouse, strain B6C3F1, females, in feed, site: all sites, lesion: leukemia + lymphoma, dosed 100 weeks, study length 100 weeks) was 478 mg/kg/day (inactive) and the TD50 (mouse, strain B6C3F1, females, in feed, site: lung, lesion: alveolar/bronchiolar adenoma + alveolar/bronchiolar carcinoma, dosed 100 weeks, study length 100 weeks) was 4040 mg/kg/day. For the same compound, the TD50 (mouse, strain B6C3F1, females, oral dosing, site: any site (literature study), lesion: several types, types named in the paper, dosed 76 weeks, study length 76 weeks) was 68 mg/kg/day, the TD50 (mouse, strain B6C3F1, males, in feed, site: all sites, lesion: hemangiosarcoma, dosed 100 weeks, study length 100 weeks) was 766 mg/kg/day (inactive) and the TD50 (mouse, strain B6C3F1, males, in feed, site: any site (literature study), lesion: several types, types named in the paper, dosed 100 weeks, study length 100 weeks) was 909 mg/kg/day. The TD50 (mouse, strain B6C3F1, males, oral dosing, site: all sites, lesion: reticulum-cell sarcoma, dosed 76 weeks, study length 76 weeks) was 30.9 mg/kg/day, the TD50 (mouse, strain B6C3F1, males, oral dosing, site: any site (literature study), lesion: several types, types named in the paper, dosed 76 weeks, study length 76 weeks) was 16.7 mg/kg/day and the TD50 (mouse, strain B6C3F1, males, oral dosing, site: liver, lesion: hepatoma, dosed 76 weeks, study length 76 weeks) was 55.7 mg/kg/day. For the same compound, the TD50 (rat, strain Fischer 344, females, in feed, site: any site (literature study), lesion: several types, types named in the paper, dosed 107 weeks, study length 107 weeks) was 267 mg/kg/day (inactive) and the TD50 (rat, strain Fischer 344, males, in feed, site: all sites, lesion: leukemia + lymphoma + neoplasm, NOS, dosed 107 weeks, study length 107 weeks) was 7.45 mg/kg/day (inactive).

`COP(=O)(OC)OC` gave a TD50 (mouse, strain B6C3F1, females, by gavage, site: any site (literature study), lesion: several types, types named in the paper, dosed 103 weeks, study length 103 weeks) of 385 mg/kg/day, a TD50 (mouse, strain B6C3F1, females, by gavage, site: liver, lesion: hepatocellular adenoma + hepatocellular carcinoma + neoplastic nodule, dosed 103 weeks, study length 103 weeks) of 6390 mg/kg/day and a TD50 (mouse, strain B6C3F1, females, by gavage, site: lung, lesion: alveolar/bronchiolar adenoma + alveolar/bronchiolar carcinoma, dosed 103 weeks, study length 103 weeks) of 3900 mg/kg/day. The TD50 (mouse, strain B6C3F1, females, by gavage, site: uterus, endometrium, lesion: adenocarcinoma, NOS, dosed 103 weeks, study length 103 weeks) was 335 mg/kg/day, the carcinogen call (mouse, strain B6C3F1, males, by gavage, site: any site (literature study), lesion: several types, types named in the paper, dosed 103 weeks, study length 103 weeks) was “negative (inactive)” and the TD50 (mouse, strain B6C3F1, males, by gavage, site: lung, lesion: alveolar/bronchiolar adenoma + alveolar/bronchiolar carcinoma, dosed 103 weeks, study length 103 weeks) was 61300 mg/kg/day. For the same compound, the carcinogen call (rat, strain BOR:WISW (Wistar), females, in drinking water, site: any site (literature study), lesion: one or several types, types not named, dosed 52 weeks, study length 52 weeks) was “negative (inactive)”, the carcinogen call (rat, strain BOR:WISW (Wistar), females, in drinking water, site: any site (literature study), lesion: several types, types named in the paper, dosed 118 weeks, study length 128 weeks) was “negative (inactive)” and the carcinogen call (rat, strain BOR:WISW (Wistar), females, in drinking water, site: liver, lesion: hepatoma, dosed 118 weeks, study length 128 weeks) was “negative (inactive)”. For the same compound, the carcinogen call (rat, strain BOR:WISW (Wistar), males, in drinking water, site: any site (literature study), lesion: one or several types, types not named, dosed 52 weeks, study length 52 weeks) was “negative (inactive)”, the carcinogen call (rat, strain BOR:WISW (Wistar), males, in drinking water, site: any site (literature study), lesion: several types, types named in the paper, dosed 118 weeks, study length 128 weeks) was “negative (inactive)” and the carcinogen call (rat, strain BOR:WISW (Wistar), males, in drinking water, site: liver, lesion: hepatoma, dosed 118 weeks, study length 128 weeks) was “negative (inactive)”. The TD50 (rat, strain Fischer 344, females, by gavage, site: any site (literature study), lesion: several types, types named in the paper, dosed 104 weeks, study length 105 weeks) was 73 mg/kg/day (inactive), the TD50 (rat, strain Fischer 344, males, by gavage, site: any site (literature study), lesion: several types, types named in the paper, dosed 104 weeks, study length 105 weeks) was 54.5 mg/kg/day and the TD50 (rat, strain Fischer 344, males, by gavage, site: liver, lesion: hepatocellular adenoma + hepatocellular carcinoma + neoplastic nodule, dosed 104 weeks, study length 105 weeks) was 485 mg/kg/day. For the same compound, the TD50 (rat, strain Fischer 344, males, by gavage, site: subcutaneous tissue, lesion: fibroma, dosed 104 weeks, study length 105 weeks) was 123 mg/kg/day.

`C#CC(C)(C)NC(=O)c1cc(Cl)cc(Cl)c1` was tested, and the TD50 (mouse, strain B6C3F1, males, in feed, site: liver, lesion: hepatocellular carcinoma, dosed 78 weeks, study length 78 weeks) was 1480 mg/kg/day, the TD50 (mouse, strain B6C3F1, males, in feed, site: liver, lesion: hepatocellular carcinoma, dosed 104 weeks, study length 104 weeks) was 140 mg/kg/day and the TD50 (mouse, strain B6C3F1, males, in feed, site: liver, lesion: several types, types named in the paper, dosed 52 weeks, study length 52 weeks) was 1360 mg/kg/day. It also gave a TD50 (mouse, strain B6C3F1, males, in feed, site: liver, lesion: several types, types named in the paper, dosed 78 weeks, study length 78 weeks) of 700 mg/kg/day and a TD50 (mouse, strain B6C3F1, males, in feed, site: liver, lesion: several types, types named in the paper, dosed 104 weeks, study length 104 weeks) of 209 mg/kg/day.

`CCCCCCCC(=O)OCC(COC(=O)CCCCCCC)OC(=O)CCCCCCC` showed a TD50 (rat, strain Fischer 344, males, by gavage, site: any site (literature study), lesion: several types, types named in the paper, dosed 104 weeks, study length 104 weeks) of 69900 mg/kg/day, a TD50 (rat, strain Fischer 344, males, by gavage, site: forestomach, lesion: squamous-cell papilloma, dosed 104 weeks, study length 104 weeks) of 15700 mg/kg/day and a TD50 (rat, strain Fischer 344, males, by gavage, site: liver, lesion: hepatocellular adenoma + hepatoblastoma + hepatocellular carcinoma, dosed 104 weeks, study length 104 weeks) of 37100 mg/kg/day. The TD50 (rat, strain Fischer 344, males, by gavage, site: liver, lesion: hepatocellular adenoma, dosed 104 weeks, study length 104 weeks) was 37100 mg/kg/day and the TD50 (rat, strain Fischer 344, males, by gavage, site: pancreas, lesion: acinar-cell adenoma, dosed 104 weeks, study length 104 weeks) was 5490 mg/kg/day (inactive).
